The values that follow come from patent US9540343B2 (Gilead Sciences, Inc., priority 2011, dated 2017).

Where only a bound is given, the exact number is not on record here.

One data set has as its system HIV-IIIb. The data set can be described thus: Test A: Antiviral assay in MT4 cells. The class given is cell-based, HIV-1. Conditions: MT-4 cells infected with HIV-IIIb, 5 days, CellTiter-Glo; for inhibition at 2 µM: Human immunodeficiency virus 1, IIIB, MT4, 120 h, read-out: % inhibition at 2 μM, percent inhibition of virus-induced cell killing, from dose response curve at 2 uM drug. In general terms: Cellular ATP, detected with luciferase, serves as a proxy for viable cell number.

The nature of a further data set: in vitro. Conditions: human, uninfected MT-4 cells, CC50 (nM), same protocol as Test A, CellTiter-Glo. A digest of the protocol:
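Cytoprotection read-out: CellTiter-Glo chemiluminescence after 5 days at 37 °C of HIV-IIIb-infected MT-4 cells (m.o.i. 0.003) with compound in 10-point 3-fold dilutions, quadruplicate, 10% FBS. Cytotoxicity (CC50) measured identically without virus.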

For the molecule `NC(=O)c1cc(-c2cccnc2[C@H](Cc2cc(F)cc(F)c2)NC(=O)Cn2nc(C(F)(F)F)c3c2C2CC2C3=O)ccc1F` (stereo partly drawn) [Example 465B, 5-(2-((1S)-2-(3,5-difluorophenyl)-1-(2-(4-oxo-3-(trifluoromethyl)-4,4-a,5,5a-tetrahydro-1H-cyclopropa[4,5]cyclopenta[1,2-c]pyrazol-1-yl)acetamido)ethyl)pyridin-3-yl)-2-fluorobenzamide], the inhibition at 2 µM in the data set on HIV-IIIb came out at 3%. Besides, the half-maximal cytotoxic concentration (CC50) at 5 days in the data set “in vitro” is more than 53200 nM.

Consider `NC(=O)c1cc(-c2cccnc2[C@H](Cc2cc(F)cc(F)c2)NC(=O)Cn2ccc3cc(Cl)ccc32)ccc1F` [Example 585, (S)-5-(2-(1-(2-(5-chloro-1H-indol-1-yl)acetamido)-2-(3,5-difluorophenyl)ethyl)pyridin-3-yl)-2-fluorobenzamide], for which the inhibition at 2 µM with HIV-IIIb was determined as 58%. Further, the midpoint of cytotoxicity in the data set “in vitro”, the CC50 at 5 days, lay at 13700 nM.

Regarding `O=C(Cc1c[nH]c2ccc(O)cc12)N[C@@H](Cc1cc(F)cc(F)c1)c1ncccc1-c1ccc(F)cc1` [Example 113, (S)—N-(2-(3,5-difluorophenyl)-1-(3-(4-fluorophenyl)pyridin-2-yl)ethyl)-2-(5-hydroxy-1H-indol-3-yl)acetamide], in the data set on HIV-IIIb, the inhibition at 2 µM was found to be 78%. Further, it took 22300 nM to reach half-maximal cytotoxicity in the data set “in vitro” (CC50 at 5 days).

On to `CNCc1cn(CC(=O)N[C@@H](Cc2cc(F)cc(F)c2)c2ncccc2-c2ccc(F)c(C(N)=O)c2)nc1C(F)(F)F` [Example 333, (S)-5-(2-(2-(3,5-difluorophenyl)-1-(2-(4-((methylamino)methyl)-3-(trifluoromethyl)-1H-pyrazol-1-yl)acetamido)ethyl)pyridin-3-yl)-2-fluorobenzamide], for which the inhibition at 2 µM in the data set with HIV-IIIb came out at 2%. This molecule also came in with a 50% cytotoxic concentration (CC50) at 5 days in “in vitro” of more than 53200 nM.

With `NC(=O)c1cccc(-c2cncnc2[C@H](Cc2cc(F)cc(F)c2)NC(=O)Cc2c[nH]c3ccc(O)cc23)c1` [Example 327, (S)-3-(4-(2-(3,5-difluorophenyl)-1-(2-(5-hydroxy-1H-indol-3-yl)acetamido)ethyl)pyrimidin-5-yl)benzamide], in the data set with HIV-IIIb, the inhibition at 2 µM was 94%. Further, the CC50 at 5 days in the data set “in vitro” was more than 53200 nM.

Regarding `O=C(Cn1nc(C(F)F)c2c1C(F)(F)CCC2(F)F)N[C@@H](Cc1cc(F)cc(F)c1)c1ncncc1-c1cnc2[nH]ccc2c1` [Example 288, (S)—N-(1-(5-(1H-pyrrolo[2,3-b]pyridin-5-yl)pyrimidin-4-yl)-2-(3,5-difluorophenyl)ethyl)-2-(3-(difluoromethyl)-4,4,7,7-tetrafluoro-4,5,6,7-tetrahydro-1H-indazol-1-yl)acetamide], the inhibition at 2 µM in the data set with HIV-IIIb is 108%. Moreover, the CC50 at 5 days in the data set “in vitro” turned out to be 16400 nM.

Regarding `O=C(Cn1nc(C(F)(F)F)c2c1CCCC2)N[C@@H](Cc1cc(F)cc(F)c1)c1ncccc1-c1ccc(N2CCCC2)nc1` [Example 432, (S)—N-(2-(3,5-difluorophenyl)-1-(6′-(pyrrolidin-1-yl)-3,3′-bipyridin-2-yl)ethyl)-2-(3-(trifluoromethyl)-4,5,6,7-tetrahydro-1H-indazol-1-yl)acetamide], in the data set on HIV-IIIb, the inhibition at 2 µM came out at 90%. In the data set “in vitro”, this molecule had a CC50 at 5 days of 7990 nM.

Regarding `NC(=O)c1cccc(-c2cccnc2[C@H](Cc2cc(F)cc(F)c2)NC(=O)Cn2ncc3ccccc32)c1` [Example 108, (S)-3-(2-(1-(2-(1H-indazol-1-yl)acetamido)-2-(3,5-difluorophenyl)ethyl)pyridin-3-yl)benzamide], the inhibition at 2 µM with HIV-IIIb came out at 13%. This molecule also displayed a CC50 at 5 days in the data set “in vitro” of more than 53000 nM.

Regarding `NC(=O)c1cc(-c2cccnc2[C@H](Cc2cc(F)cc(F)c2)NC(=O)Cn2nc(C(F)F)c3c2C(F)(F)CCC3O)ccc1F` (stereo partly drawn) [Example 334, 5-(2-((1S)-1-(2-(3-(difluoromethyl)-7,7-difluoro-4-hydroxy-4,5,6,7-tetrahydro-1H-indazol-1-yl)acetamido)-2-(3,5-difluorophenyl)ethyl)pyridin-3-yl)-2-fluorobenzamide], the inhibition at 2 µM with HIV-IIIb came to 63%. In addition, the 50% cytotoxic concentration (CC50) at 5 days in the data set “in vitro” amounted to 26500 nM.

Turning to `CN(C)Cc1cn(CC(=O)N[C@@H](Cc2cc(F)cc(F)c2)c2ncccc2-c2ccc(F)c(C(N)=O)c2)nc1C(F)(F)F` [Example 300, (S)-5-(2-(2-(3,5-difluorophenyl)-1-(2-(4-((dimethylamino)methyl)-3-(trifluoromethyl)-1H-pyrazol-1-yl)acetamido)ethyl)pyridin-3-yl)-2-fluorobenzamide], the inhibition at 2 µM with HIV-IIIb was 0%. Also, in “in vitro”, the half-maximal cytotoxic concentration (CC50) at 5 days was more than 53200 nM.

Turning to `NC(=O)c1cc(-c2cccnc2[C@H](Cc2cc(F)cc(F)c2)NC(=O)Cn2nc3c(c2C(F)(F)F)CCC3)ccc1F` [Example 151E, (S)-5-(2-(2-(3,5-difluorophenyl)-1-(2-(3-(trifluoromethyl)-5,6-dihydrocyclopenta[c]pyrazol-2(4H)-yl)acetamido)ethyl)pyridin-3-yl)-2-fluorobenzamide], the inhibition at 2 µM in the data set with HIV-IIIb came to 11%. In “in vitro”, this molecule gave a half-maximal cytotoxic concentration (CC50) at 5 days of 20300 nM.

For `NC(=O)c1cc(-c2cccnc2[C@H](Cc2cc(F)cc(F)c2)NC(=O)[C@H]2COCCN2)ccc1F` [Example 188, (R)—N—((S)-1-(3-(3-carbamoyl-4-fluorophenyl)pyridin-2-yl)-2-(3,5-difluorophenyl)ethyl)morpholine-3-carboxamide], the inhibition at 2 µM with HIV-IIIb came out at 0%. The molecule further returned a CC50 at 5 days in “in vitro” of more than 53000 nM.

In the case of `CS(=O)(=O)c1cccc(-c2cccnc2[C@H](Cc2cc(F)cc(F)c2)NC(=O)Cn2nc(C(F)(F)F)c3c2CCCC3)c1` [Example 57B, (S)—N-(2-(3,5-difluorophenyl)-1-(3-(3-(methylsulfonyl)phenyl)pyridin-2-yl)ethyl)-2-(3-(trifluoromethyl)-4,5,6,7-tetrahydro-1H-indazol-1-yl)acetamide], the inhibition at 2 µM with HIV-IIIb was found to be 98%. This molecule also came in with a cytotoxic concentration (CC50) at 5 days in the data set “in vitro” of 13300 nM.

Take `CC1(O)CCCc2c(C(F)F)nn(CC(=O)N[C@@H](Cc3cc(F)cc(F)c3)c3ncccc3-c3ccc(F)c(C(N)=O)c3)c21` (stereo partly drawn) [Example 349B, 5-(2-((1S)-1-(2-(3-(difluoromethyl)-7-hydroxy-7-methyl-4,5,6,7-tetrahydro-1H-indazol-1-yl)acetamido)-2-(3,5-difluorophenyl)ethyl)pyridin-3-yl)-2-fluorobenzamide]: the inhibition at 2 µM in the data set on HIV-IIIb was 94%. The molecule also came in with a cytotoxic concentration (CC50) at 5 days in “in vitro” of 40800 nM.

On to `NC(=O)c1cccc(-c2cccnc2[C@H](Cc2cc(F)cc(F)c2)NC(=O)CC2C(=O)Nc3ccccc32)c1` (stereo partly drawn) [Example 191, 3-(2-((1S)-2-(3,5-difluorophenyl)-1-(2-(2-oxoindolin-3-yl)acetamido)ethyl)pyridin-3-yl)benzamide], for which the “% inhibition at 2 μM” value with HIV-IIIb (percent inhibition of virus-induced cell killing, from dose response curve at 2 uM drug) was 19%. The molecule further yielded a CC50 at 5 days in the data set “in vitro” of more than 50900 nM.

For `CC(C)c1cc(C(=O)NC2CC2)n(CC(=O)N[C@@H](Cc2cc(F)cc(F)c2)c2ncccc2-c2ccc(F)c(C(N)=O)c2)n1` [Example 520, (S)-1-(2-(1-(3-(3-carbamoyl-4-fluorophenyl)pyridin-2-yl)-2-(3,5-difluorophenyl)ethylamino)-2-oxoethyl)-N-cyclopropyl-3-isopropyl-1H-pyrazole-5-carboxamide], in the data set with HIV-IIIb, the inhibition at 2 µM worked out at 30%. Besides, the CC50 at 5 days in the data set “in vitro” is more than 53200 nM.

`Cc1ccc(-c2cccnc2[C@H](Cc2cc(F)cc(F)c2)NC(=O)Cc2c[nH]c3ccc(F)cc23)cc1` [Example 69, (S)—N-(2-(3,5-difluorophenyl)-1-(3-p-tolylpyridin-2-yl)ethyl)-2-(5-fluoro-1H-indol-3-yl)acetamide]: the inhibition at 2 µM in the data set on HIV-IIIb worked out at 84%. Besides, in the data set “in vitro”, half-maximal cytotoxicity (CC50 at 5 days) was put at 6690 nM.

Turning to `COC(=O)Nc1ccc(-c2cccnc2[C@H](Cc2cc(F)cc(F)c2)NC(=O)Cn2nc(C(F)F)c3c2C(F)(F)C2CC32)cc1` (stereo partly drawn) [Example 68B, (S)-methyl 4-(2-(1-(3-(difluoromethyl)-5,6-dihydro-4,5-(methano)-6,6-difluoro-cyclopenta[c]pyrazol-1(4H)-ylacetamido)-2-(3,5-difluorophenyl)ethyl)pyridin-3-yl)phenylcarbamate], in the data set on HIV-IIIb, the inhibition at 2 µM came to 28%. The molecule also returned a half-maximal cytotoxic concentration (CC50) at 5 days in the data set “in vitro” of more than 53200 nM.

For `O=C(Cn1nc(C(F)F)c2c1C(F)(F)C1CC21)N[C@@H](Cc1cc(F)cc(F)c1)c1ncccc1-c1cccc2cnccc12` (stereo partly drawn) [Example 410, (S)—N-(1-(3-(quinole-5-yl)-pyridin-2-yl)-2-(3,5-difluorophenyl)ethyl)-2-(3-(difluoromethyl)-5,6-dihydro-4,5-(methano)-6,6-difluoro-cyclopenta[c]pyrazol-1(4H)-yl)acetamide], the inhibition at 2 µM in the data set on HIV-IIIb was found to be 103%. Also, the CC50 at 5 days in the data set “in vitro” turned out to be 13700 nM.

Turning to `NC(=O)c1cccc(-c2cccnc2[C@H](Cc2cc(F)cc(F)c2)NC(=O)Cc2c[nH]c3ccc(C(F)(F)F)cc23)c1` [Example 596, (S)-3-(2-(2-(3,5-difluorophenyl)-1-(2-(5-(trifluoromethyl)-1H-indol-3-yl)acetamido)ethyl)pyridin-3-yl)benzamide], the inhibition at 2 µM in the data set with HIV-IIIb stood at 96%. The cytotoxic concentration (CC50) at 5 days in the data set “in vitro” amounted to 10900 nM.

Consider `COc1ccc(-c2cccnc2[C@H](Cc2cc(F)cc(F)c2)NC(=O)Cn2nc(C(F)(F)F)c3c2CCCC3)cc1` [Example 30, (S)—N-(2-(3,5-difluorophenyl)-1-(3-(4-methoxyphenyl)pyridin-2-yl)ethyl)-2-(3-(trifluoromethyl)-4,5,6,7-tetrahydro-1H-indazol-1-yl)acetamide], for which the inhibition at 2 µM in the data set on HIV-IIIb was 76%. The molecule also gave a CC50 at 5 days in the data set “in vitro” of 11900 nM.

For the molecule `NC(=O)c1cccc(-c2cccnc2[C@H](Cc2cc(F)cc(F)c2)NC(=O)Cc2c[nH]c3ccc(N)cc23)c1` [Example 560, (S)-3-(2-(1-(2-(5-amino-1H-indol-3-yl)acetamido)-2-(3,5-difluorophenyl)ethyl)pyridin-3-yl)benzamide], in the data set with HIV-IIIb, the inhibition at 2 µM worked out at 112%. This molecule had a cytotoxic concentration (CC50) at 5 days in “in vitro” of more than 53000 nM.

One may read the inhibition as the relative decrease from the control value, in per cent. Broadly, the CC50 is the concentration that lowers cell viability or growth by half. The low end stands for greater toxicity to the cells, the high end for lower toxicity to the cells. Usually % inhibition stands for the percentage by which the read-out fell short of the control. Low readings indicate a weak effect, high ones a strong effect.
